Assay results: patent US7928189B2, “PCSK9 polypeptide fragment” (Ottawa Health Research Institute, priority 2008, dated 2011)
Where no end group is shown, it is not given here. [ ]: non-standard residue; d: D form. pS = N[C@@H](COP(=O)(O)O)C(=O)O

Legend:
Format in all cases: cell-based, human
[1] = system: LDLR levels in Huh7 cells; assay: Kinase inhibitor incubation, LDLR immunoblot of total cell lysates; conditions: 16 hrs, SSP at 200 nm, GK at 25 μg/ml, relative to untreated cells
Experimental: The level of LDLR was quantified in Huh7 cells by immunoblotting of total cell lysates (50 μg) in response to overnight incubation without (control) or with two different kinase inhibitors, staurosporine (SSP at 200 nm) or GK (genistein at 25 μg/ml) (FIG. 11A). Huh7 cells were seeded onto 6 well plates and grown to 80% confluency in DMEM (Dulbecco's Modified Eagle's Medium)+10% (v/v) FBS (fetal bovine serum)+280 μg/ml GTM (gentamycin). Cells were then incubated for 16 hrs in the same media in the presence or absence of kinase inhibitor; staurosporine (SSP at 200 nm) or GK (genistein at 25 μg/ml). Cells were lysed in 1XRIPA buffer [50 mM Tris (pH 7.6), 150 mM NaCl, 1% (v/v) NP-40, 0.5% (w/v) DOC, 0.1% (w/v) SDS] in the presence of inhibitors, as above. Lysates were rotated at 4° C. for 30 min, centrifuged at 13,000×g for 3 min and supernatants collected. Protein concentrations in total cell lysates were determined by the Bradford dye-binding method using Bio-Rad's Protein Assay Kit (Bio-Rad; Mississauga, ON, CAN). LDLR levels were analyzed by immunoblotting following a standard protocol. The protein signals were quantified by densitometry using Syngene Chemigenius 2XE imager and Gene Tools software. […]

[2] = system: PCSK9 phosphorylation in Huh7 cells; assay: Kinase inhibitor incubation, radiolabelling and immunoprecipitation of secreted PCSK9; conditions: 32P-orthophosphate, 16 hrs, SSP at 200 nm, GK at 25 μg/ml
Experimental: Untransfected and transfected HepG2 and Huh7 cells were grown to confluence as above. Prior to radiolabeling cells were incubated for 4 hours in serum-free DMEM without sodium phosphate (Invitrogen) or methionine/cysteine (Met/Cys) free DMEM (Invitrogen) and then incubated for 16 hrs in the same media in the presence of either 250 μCi 32P-orthophosphate or 250 μCi 35S-Met/Cys. Media and TCLs were harvested and immunoprecipitated as described above. Samples were fractionated through a 12% SDSPAGE. Following electrophoresis gels were dried and visualized by phosphoimaging using a Typhoon Imager. Signals were quantified using ImageQuant 5.2 software using the integer integration method when comparing samples within a lane and, for samples between lanes, by volume quantitation as recommended. The level of LDLR was quantified in Huh7 cells by immunoblotting of total cell lysates (50 μg) in response to overnight incubation without (control) or with two different kinase inhibitors, staurosporine (SSP at 200 nm) or GK (genistein at 25 μg/ml) (FIG. 11A). […] Protein concentrations in total cell lysates were determined by the Bradford dye-binding method using Bio-Rad's Protein Assay Kit (Bio-Rad; Mississauga, ON, CAN). LDLR levels were analyzed by immunoblotting following a standard protocol. […]

[3] = system: LDLR levels in Huh7 cells; assay: Peptides added to cultured cells, LDLR immunoblot of total cell lysates; conditions: 24 hours, media minus FBS
Experimental: Cells were seeded onto 6 well plates and grown to ˜80% confluency. All cell lines were grown in DMEM (Dulbecco's Modified Eagle's Medium)+10% (v/v) FBS (fetal bovine serum)+280 μg/ml GTM (gentamycin). In this case, cells were incubated overnight in the same media in the absence of FBS for 12 hours. Peptides are then added to media minus FBS, and at indicated concentrations and this media+peptide is added onto cells cultured for additional 24 hours. Following this incubation we collected the spent media and total cell lysates (TCL) in the presence of protease inhibitor cocktail. 50 μg of proteins from TCL were then fractionated by SDS-PAGE, transferred to nitrocellulose and immunoblotted following standard protocols with a commercial anti LDLR antibody. The protein signals for LDLR were quantified by densitometry using Syngene Chemigenius 2XE imager and Gene Tools software. All values are made relative to values from untreated control cells set as 1 and presented as mean±SEM ([…]).

[4] = system: LDLR levels in Huh7 cells; assay: Overexpression of PCSK9 phosphorylation mutants, LDLR immunoblot; conditions: 72 hours post-transfection, in comparison to wildtype PCSK9
Experimental: Huh7 cells were untransfected (C-control) or transiently transfected with cDNAs encoding either wild-type (WT) PCSK9, or the naturally-occurring propeptide mutants shown to decrease PCSK9 phosphorylation; A53V PCSK9 and R46L PCSK9 or the engineered propeptide mutants that prevent phosphorylation; S47A PCSK9, E49A PCAK9 and E49D PCSK9 or the engineered C-terminal mutants that prevent phosphorylation; S688A and E690A. 72 hours post-transfection spent media and total cell lysates were collected as described herein. 50 μg of total cell lysates were fractionated through a 7% NuPAGE Tris-Acetate Gel (Invitrogen) and immunoblotted for LDLR as described below. The protein signals were quantified by densitometry using Syngene Chemigenius 2XE imager and Gene Tools software. All values were made relative to values from control cells set as 1 and presented as mean±SEM (n=3). Data were analyzed using GraphPad Prism 5.0 statistical software with significance defined as p<0.05.

Compound	effect on LDLR degradation in comparison to control ([3]; peptide 10 μM)	effect on LDLR degradation in comparison to control ([3]; peptide 100 μM)	also measured
O=c1c(-c2ccc(O)cc2)coc2cc(O)cc(O)c12 [GK, genistein]	–	–	level of LDLR [1]: not; phosphorylation of PCSK9 and its prodomain [2]: does not affect PCSK9 phosphorylation
CN[C@@H]1C[C@H]2O[C@@](C)([C@@H]1OC)n1c3ccccc3c3c4c(c5c6ccccc6n2c5c31)C(=O)NC4 [SSP, staurosporine]	–	–	level of LDLR [1]: increased levels of LDLR; phosphorylation of PCSK9 and its prodomain [2]: neither PCSK9 nor its prodomain are phosphorylated
RSRHLAQAS(phos)QELQ (RSRHLAQA[pS]QELQ) [SEQ ID NO:5, phosphorylated PCSK9 polypeptide fragment comprising phosphoSerine 688]	protect LDLR from degradation	protect LDLR from degradation	–
RSRHLAQASQELQ (homo sapiens) [SEQ ID NO:4, unphosphorylated PCSK9 polypeptide fragment comprising Serine 688]	protect LDLR from degradation	–	–
S47E: engineered propeptide mutant that mimics PCSK9 propeptide phosphorylation	–	–	level of LDLR / LDLR degradation [4]: increased LDLR degradation
VLALRS(phos)EEDGLAEAP (VLALR[pS]EEDGLAEAP) [SEQ ID NO:3, phosphorylated PCSK9 polypeptide fragment comprising phosphoSerine 47]	accentuate LDLR degradation	accentuate LDLR degradation	–
VLALRSEEDGLAEAP (homo sapiens) [SEQ ID NO:2, unphosphorylated PCSK9 polypeptide fragment comprising Serine 47]	protect LDLR from degradation	protect LDLR from degradation	–
